Assay results: patent US8309685B2 (Celgene Avilomics Research, Inc., priority 2007, dated 2012)
pIC50: −log10 of the molar value. Like-named read-outs stand apart in the source and are kept apart here.

How the values were obtained:
[1] = target: T1, A156T mutant of the HCV NS3/4A 1b protease enzyme (Hepatitis C virus genotype 1b, UniProt P26663, A1182T); experiment: HCV Protease FRET Assay (IC50_APP), A156T mutant; format: biochemical; conditions: apparent IC50, A156T mutant; read-out: IC50_APP, HCV A156T
T1 construct: 10× stocks of NS3/4A protease enzyme from Bioenza (Mountain View, Calif.); purchased Bioenza (Mountain View, Calif.)
Protocol: (§1) HCV Protease FRET Assay for WT and Mutated NS3/4A 1b Enzymes (IC50—APP).
(§2) The following protocol was used to generate “apparent” IC50 (IC50—APP) values as depicted in Table 6, below. […] 5 μL of each enzyme were added to Corning (#3575) 384-well, black, microtiter plates (Corning, N.Y.) after spotting a 0.5 μL volume of 50% DMSO and serially diluted compounds prepared in 50% DMSO. Protease reactions were immediately started after enzyme addition with the addition of 45 μL of the FRET substrate and monitored for 60-90 minutes at λex485/λem520 in a Synergy^4 plate reader from BioTek (Winooski, Vt.). At the conclusion of each assay, progress curves from each well were examined for linear reaction kinetics and fit statistics (R^2, 95% confidence intervals, absolute sum of squares).
(§3) The compound numbers correspond to the compound numbers in Table 3. […] ;

[2] = target: T2, D168A mutant of the HCV NS3/4A 1b protease enzyme (Hepatitis C virus genotype 1b, UniProt P26663, D1194A); experiment: HCV Protease FRET Assay (IC50_APP), D168A mutant; format: biochemical; conditions: apparent IC50, D168A mutant; read-out: IC50_APP, HCV D168A
T2 construct: 10× stocks of NS3/4A protease enzyme from Bioenza (Mountain View, Calif.); purchased Bioenza (Mountain View, Calif.)
Protocol: as §1, §2, §3

[3] = test system: HCV RNA replicon in cell line ET (luc-ubi-neo/ET), human Huh7 hepatoma; experiment: Method A: HCV RNA replicon antiviral assay (luciferase, ET cell line); format: cell-based, Hepatitis C virus; conditions: Hepatitis C virus, Huh-7, assay described in Example 22; for pIC50: read-out: Replicon (IC50)
Protocol: The compounds were assayed to evaluate the antiviral activity and cytotoxicity of compounds in vitro using HCV RNA replicons. This assay used the cell line ET (luc-ubi-neo/ET), which is a human Huh7 hepatoma cell line that contains an HCV RNA replicon with a stable luciferase (Luc) reporter and three cell culture-adaptive mutations. […]
The ET cell line was grown in Dulbecco's modified essential media (DMEM), 10% fetal bovine serum (FBS), 1% penicillin-streptomycin (pen-strep), 1% glutamine, 250 μg/ml G418 in a 5% CO2 incubator at 37° C. All cell culture reagents were obtained from Mediatech (Manassas, Va.). Cells were trypsinized (1% trypsin:EDTA) and plated out at 5×10^3 cells/well in white 96-well assay plates (Costar) dedicated to cell number (cytotoxicity) or antiviral activity assessments. Drugs were added at six 3-fold concentrations each and the assay was run in DMEM, 5% FBS, 1% pen-strep, 1% glutamine. Human interferon alpha-2b (PBL Biolabs, New Brunswick, N.J.) was included in each run as a positive control compound. Cells were processed 72 hr post drug addition when the cells are still subconfluent. Antiviral activity was measured by analyzing replicon-derived luciferase activity using the Steady-Glo Luciferase Assay System (Promega, Madison, Wis.) according to manufacturer's instruction. The number of cells in each well was determined by CytoTox-1 reagent (Promega). Compound profile was derived by calculating applicable EC50 (effective concentration inhibiting virus replication by 50%), EC90 (effective concentration inhibiting virus replication by 90%), IC50 (concentration decreasing cell viability by 50%) and SI50 (selective index: […]) values.

[4] = target: T3, wild type HCV NS3/4A 1b protease enzyme (Hepatitis C virus genotype 1b, UniProt P26663); experiment: HCV Protease FRET Assay (IC50_APP), wild type; format: biochemical
T3 construct: 10× stocks of NS3/4A protease enzyme from Bioenza (Mountain View, Calif.); purchased Bioenza (Mountain View, Calif.)
Protocol: as §1, §2, §3

[5] = read-out: IC50_APP, WT, apparent IC50, wild type NS3/4A 1b

SMILES	pIC50 [1]	pIC50 [2]	IC90 [3]	pIC50 [3]	pIC50 [4]	pIC50 [4, 5]
C=C[C@@H]1C[C@]1(NC(=O)[C@@H]1C[C@@H](Oc2nccc3ccc(-c4cccs4)cc23)CN1C(=O)[C@H](CCC(=O)C=C(C)C)NC(=O)OC(C)(C)C)C(=O)NS(=O)(=O)C1CC1 [Compound I-87, tert-butyl-(S)-1-((2S,4R)-2-((1R,2S)-1-(cyclopropylsulfonylcarbamoyl)-2-vinylcyclopropylcarbamoyl)-4-(7-(thiophen-2-yl)isoquinolin-1-yloxy)pyrrolidin-1-yl)-7-methyl-1,5-dioxooct-6-en-2-ylcarbamate]	7.00 to 8.00	6.00 to 7.00	10 to 100 nM	> 8.00	> 8.00	
C=CC(=O)N(C)C[C@H](NC(=O)OC(C)(C)C)C(=O)N1C[C@H](Oc2nccc3ccc(Br)cc23)C[C@H]1C(=O)N[C@]1(C(=O)NS(=O)(=O)C2CC2)C[C@H]1C=C [Compound I-84, tert-butyl-(S)-1-((2S,4R)-4-(7-bromoisoquinolin-1-yloxy)-2-((1R,2S)-1-(cyclopropylsulfonylcarbamoyl)-2-vinylcyclopropylcarbamoyl)pyrrolidin-1-yl)-3-(N-methylacrylamido)-1-oxopropan-2-ylcarbamate]	6.00 to 7.00	6.00 to 7.00	100 to 1000 nM	7.00 to 8.00		> 8.00
C=CC(=O)O[C@H](C)[C@H](NC(=O)OC(C)(C)C)C(=O)N1C[C@H](Oc2cc(-c3ccccc3)nc3cc(OC)ccc23)C[C@H]1C(=O)N[C@]1(C(=O)NS(=O)(=O)C2CC2)C[C@H]1C=C [Compound I-64, t-butyl-(2S,3R)-3-acryloxy-1-((2S,4R)-2-((1R,2S)-1-(cyclopropylsulfonylcarbamoyl)-2-vinylcyclopropylcarbamoyl)-4-(7-methoxy-2-phenylquinolin-4-yloxy)pyrrolidin-1-yl)-1-oxobutan-2-ylcarbamate]	7.00 to 8.00	7.00 to 8.00	100 to 1000 nM	6.00 to 7.00		> 8.00
C=CC(=O)N(C)C[C@H](NC(=O)OC1CCCC1)C(=O)N1C[C@H](Oc2cc(-c3ccccc3)nc3cc(OC)ccc23)C[C@H]1C(=O)N[C@]1(C(=O)NS(=O)(=O)C2CC2)C[C@H]1C=C [Compound I-72]	6.00 to 7.00	6.00 to 7.00	10 to 100 nM	> 8.00		> 8.00
C=CC(=O)N(C)CC[C@H](NC(=O)OC1CCCC1)C(=O)N1C[C@H](Oc2cc(-c3ccccc3)nc3cc(OC)ccc23)C[C@H]1C(=O)N[C@]1(C(=O)NS(=O)(=O)C2CC2)C[C@H]1C=C [Compound I-85, Cyclopentyl-(S)-1-((2S,4R)-2-((1R,2S)-1-(cyclopropylsulfonylcarbamoyl)-2-vinylcyclopropylcarbamoyl)-4-(7-methoxy-2-phenylquinolin-4-yloxy)pyrrolidin-1-yl)-4-(N-methylacrylamido)-1-oxobutan-2-ylcarbamate]	7.00 to 8.00	7.00 to 8.00	10 to 100 nM	7.00 to 8.00		> 8.00
C=C[C@@H]1C[C@]1(NC(=O)[C@@H]1C[C@@H](Oc2cc(-c3ccccc3)nc3cc(OC)ccc23)CN1C(=O)C(CN(C)C(=O)C#CC)NC(=O)OC(C)(C)C)C(=O)NS(=O)(=O)c1ccccc1 (stereo in doubt) [Compound I-51, tert-butyl-(S)-1-((2S,4R)-4-(7-methoxy-2-phenylquinolin-4-yloxy)-2-((1R,2S)-1-(phenylsulfonylcarbamoyl)-2-vinylcyclopropylcarbamoyl)pyrrolidin-1-yl)-3-(N-methylbut-2-ynamido)-1-oxopropan-2-ylcarbamate]		5.00 to 6.00				7.00 to 8.00
C=C[C@@H]1C[C@]1(NC(=O)[C@@H]1C[C@@H](Oc2cc(-c3ccccc3)nc3cc(OC)ccc23)CN1C(=O)[C@H](CCC(=O)C=C(C)C)NC(=O)OC(C)(C)C)C(=O)NS(=O)(=O)C1CC1 [Compound I-68, tert-butyl-(S)-1-((2S,4R)-2-((1R,2S)-1-(cyclopropylsulfonylcarbamoyl)-2-vinylcyclopropylcarbamoyl)-4-(7-methoxy-2-phenylquinolin-4-yloxy)pyrrolidin-1-yl)-7-methyl-1,5-dioxooct-6-en-2-ylcarbamate]	6.00 to 7.00	6.00 to 7.00	10 to 100 nM	> 8.00		> 8.00
C=CC(=O)N[C@H](C(=O)N1C[C@H](Oc2cc(-c3ccccc3)nc3cc(OC)ccc23)C[C@H]1C(=O)N[C@]1(C(=O)NS(=O)(=O)c2ccccc2)C[C@H]1C=C)C(C)C [Compound I-60, (2S,4R)-1-((S)-2-acrylamido-3-methylbutanoyl)-N-((1R,2S)-1-(phenylylsulfonylcarbamoyl)-2-vinylcyclopropyl)-4-(7-methoxy-2-phenylquinolin-4-yloxy)pyrrolidine-2-carboxamide]	6.00 to 7.00	5.00 to 6.00	100 to 1000 nM	7.00 to 8.00		7.00 to 8.00
C=CC(=O)N(C)C[C@H](NC(=O)c1cnccn1)C(=O)N1C[C@H](Oc2cc(-c3ccccc3)nc3cc(OC)ccc23)C[C@H]1C(=O)N[C@]1(C(=O)NS(=O)(=O)C2CC2)C[C@H]1C=C [Compound I-58, (S)—N-3-(N-methyl)acrylamido-1-((2S,4R)-2-((1R,2S)-1-(cyclopropylsulfonylcarbamoyl)-2-vinylcyclopropylcarbamoyl)-4-(7-methoxy-2-phenylquinolin-4-yloxy)pyrrolidin-1-yl)-1-oxo-2-propylpyrazinecarboxamide]	5.00 to 6.00	5.00 to 6.00	1000 to 10000 nM	6.00 to 7.00		7.00 to 8.00
C=C[C@@H]1C[C@]1(NC(=O)[C@@H]1C[C@@H](Oc2cc(-c3ccccc3)nc3cc(OC)ccc23)CN1C(=O)[C@H](CCC(=O)N[C@H]1COC1=O)NC(=O)OC(C)(C)C)C(=O)NS(=O)(=O)C1CC1 [Compound I-69, t-butyl-(2S)-1-((2S,4R)-2-((1R,2S)-1-(cyclopropylsulfonylcarbamoyl)-2-vinylcyclopropylcarbamoyl)-4-(7-methoxy-2-phenylquinolin-4-yloxy)pyrrolidin-1-yl)-5-((3S)-2-oxooxetan-3-ylamino)-1,5-dioxopentan-2-ylcarbamate]	6.00 to 7.00	6.00 to 7.00				> 8.00
C=C[C@@H]1C[C@]1(NC(=O)[C@@H]1C[C@@H](Oc2cc(-c3ccccc3)nc3cc(OC)ccc23)CN1C(=O)CNC(=O)c1ccc([N+](=O)[O-])cc1F)C(=O)NS(=O)(=O)c1ccccc1 [Compound I-63, (2S,4R)-1-(2-fluoro-4-nitrobenzamidoacetyl)-N-((1R,2S)-1-(phenylsulfonylcarbamoyl)-2-vinylcyclopropyl)-4-(7-methoxy-2-phenylquinolin-4-yloxy)pyrrolidine-2-carboxamide]	5.00 to 6.00	5.00 to 6.00				6.00 to 7.00
C=C[C@@H]1C[C@]1(NC(=O)[C@@H]1C[C@@H](Oc2cc(-c3ccccc3)nc3cc(OC)ccc23)CN1C(=O)CNC(=O)/C=C/C)C(=O)NS(=O)(=O)C1CC1 [Compound I-57, (2S,4R)-1-(2-(E)-but-2-enamidoacetyl)-N-((1R,2S)-1-(cyclopropylsulfonylcarbamoyl)-2-vinylcyclopropyl)-4-(7-methoxy-2-phenylquinolin-4-yloxy)pyrrolidine-2-carboxamide]		5.00 to 6.00				6.00 to 7.00
C=CC(=O)N[C@@H](C(=O)N1C[C@H](Oc2cc(-c3ccccc3)nc3cc(OC)ccc23)C[C@H]1C(=O)N[C@]1(C(=O)NS(=O)(=O)C2CC2)C[C@H]1C=C)C(C)(C)C [Compound I-65, (2S,4R)-1-((R)-2-acrylamido-3,3-dimethylbutanoyl)-N-((1R,2S)-1-(cyclopropylsulfonylcarbamoyl)-2-vinylcyclopropyl)-4-(7-methoxy-2-phenylquinolin-4-yloxy)pyrrolidine-2-carboxamide]	5.00 to 6.00	5.00 to 6.00				6.00 to 7.00
